# Measured values taken from patent US9067871B2, “Aminotetraline derivatives, pharmaceutical compositions containing them, and their use in therapy” (ABBVIE DEUTSCHLAND GMBH & CO KG, priority 2009, dated 2015).
# Counter-ions that a name gives are not always drawn. Like-named read-outs stand apart in the source and are kept apart here.
# Columns and labels:
# human GlyT1c = human GlyT1c (Homo sapiens (Human), UniProt P48067); experiment: [3H]-Glycine uptake into recombinant CHO cells expressing human GlyT1; format: cell-based
# Sequence of human GlyT1c (P48067 whole entry): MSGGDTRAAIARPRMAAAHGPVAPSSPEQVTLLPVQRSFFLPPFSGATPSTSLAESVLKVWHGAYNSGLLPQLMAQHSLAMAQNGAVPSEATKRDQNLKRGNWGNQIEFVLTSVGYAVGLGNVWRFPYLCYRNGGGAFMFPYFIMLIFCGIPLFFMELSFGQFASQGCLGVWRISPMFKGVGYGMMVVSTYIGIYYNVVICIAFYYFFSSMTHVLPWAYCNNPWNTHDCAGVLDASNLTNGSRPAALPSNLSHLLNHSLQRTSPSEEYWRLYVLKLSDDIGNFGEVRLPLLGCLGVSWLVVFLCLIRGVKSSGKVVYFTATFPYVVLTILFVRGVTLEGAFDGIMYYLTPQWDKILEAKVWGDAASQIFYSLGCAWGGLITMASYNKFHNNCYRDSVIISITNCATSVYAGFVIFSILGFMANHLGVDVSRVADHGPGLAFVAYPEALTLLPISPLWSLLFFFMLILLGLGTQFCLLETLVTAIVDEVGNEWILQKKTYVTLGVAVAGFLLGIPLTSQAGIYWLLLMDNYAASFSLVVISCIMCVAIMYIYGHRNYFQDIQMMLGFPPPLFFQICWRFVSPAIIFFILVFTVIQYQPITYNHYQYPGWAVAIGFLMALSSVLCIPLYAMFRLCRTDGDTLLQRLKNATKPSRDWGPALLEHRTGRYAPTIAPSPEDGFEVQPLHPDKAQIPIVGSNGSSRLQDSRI
# Outline: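 Recombinant CHO cells stably expressing hGlyT1c, grown 24 h to sub-confluency on scintillating plates, given inhibitor or vehicle plus 200 nM (final) [3H]-glycine in HBSS. Uptake counted continuously by solid-phase scintillation for up to 3 h; nonspecific uptake defined with 10 μM Org24598.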
# human GlyT1c transporter = human GlyT1c transporter (Homo sapiens (Human), UniProt P48067); experiment: Radioligand binding assay using recombinant CHO cell membranes expressing human GlyT1; conditions: read-out: radioligand binding Kiapp
# Sequence of human GlyT1c transporter (P48067 whole entry): as above
# Excerpt: 2. Radioligand binding assays using recombinant CHO cell membranes expressing human GlyT1: […]
# [1] = hGlyT1c_5_CHO cells, 200 nM [3H]-glycine
# [2] = human GlyT1c-expressing CHO cell membranes
SMILES,IC50 (human GlyT1c; [1]),Ki (human GlyT1c transporter; [2]),IC50 (human GlyT1c),Ki (human GlyT1c transporter)
"CCOC(=O)NC1CCc2ccc(OCCNS(=O)(=O)c3sc(C)nc3C)cc2C1Cc1cccc(Cl)c1 (stereo not shown) [Example 49, {1-(3-Chloro-benzyl)-7-[2-(2,4-dimethyl-thiazole-5-sulfonylamino)-ethoxy]-1,2,3,4-tetrahydro-naphthalen-2-yl}-carbamic acid ethyl ester]",≤ 100 µM,≤ 100 µM,,
"NC1CCc2ccc(OCCNS(=O)(=O)c3cccs3)cc2C1Cc1ccc(Cl)c(Cl)c1 (stereo not shown) [Example 17, Thiophene-2-sulfonic acid {2-[7-amino-8-(3,4-dichloro-benzyl)-5,6,7,8-tetrahydro-naphthalen-2-yloxy]-ethyl}-amide hydrochloride]",≤ 10 µM,≤ 1 µM,,
"CCCS(=O)(=O)NCCOc1ccc2c(c1)C(Cc1ccc(Cl)c(Cl)c1)C(N)CC2 (stereo not shown) [Example 8, Propane-1-sulfonic acid {2-[7-amino-8-(3,4-dichloro-benzyl)-5,6,7,8-tetrahydronaphthalen-2-yloxy]-ethyl}-amide hydrochloride]",,,≤ 0.1 µM,≤ 0.1 µM
"NC1CCc2ccc(OCCN3CCCS3(=O)=O)cc2C1Cc1cccc(Cl)c1 (stereo not shown) [Example 33, 1-(3-chlorobenzyl)-7-[2-(1,1-dioxidoisothiazolidin-2-yl)ethoxy]-1,2,3,4-tetrahydronaphthalen-2-amine hydrochloride]",≤ 1 µM,≤ 1 µM,,
"Cn1cnc(S(=O)(=O)NCCOc2ccc3c(c2)C(Cc2ccc(Cl)c(Cl)c2)C(NC=O)CC3)c1 (stereo not shown) [Example 20, 1-Methyl-1H-imidazole-4-sulfonic acid {2-[8-(3,4-dichloro-benzyl)-7-formylamino-5,6,7,8-tetrahydro-naphthalen-2-yloxy]-ethyl}-amide]",≤ 0.1 µM,≤ 0.01 µM,,
"CCn1cc(S(=O)(=O)NCCOc2ccc3c(c2)C(Cc2cccc(Cl)c2)C(N)CC3)cn1 (stereo not shown) [Example 66, 1-Ethyl-1H-pyrazole-4-sulfonic acid {2-[7-amino-8-(3-chloro-benzyl)-5,6,7,8-tetrahydronaphthalen-2-yloxy]-ethyl}-amide hydrochloride]",,,≤ 1 µM,≤ 0.1 µM
"Cn1cc(S(=O)(=O)NCCOc2ccc3c(c2)C(Cc2ccc(Cl)c(Cl)c2)C(N)CC3)cn1 (stereo not shown) [Example 4, 1-Methyl-1H-pyrazole-4-sulfonic acid {2-[7-amino-8-(3,4-dichloro-benzyl)-5,6,7,8-tetrahydro-naphthalen-2-yloxy]-ethyl}-amide hydrochloride]",≤ 0.01 µM,≤ 0.01 µM,,
"NC1CCc2ccc(OCCNS(=O)(=O)c3ccccc3)cc2C1Cc1ccc(Cl)c(Cl)c1 (stereo not shown) [Example 16, N-{2-[7-Amino-8-(3,4-dichloro-benzyl)-5,6,7,8-tetrahydro-naphthalen-2-yloxy]-ethyl}-benzenesulfonamide hydrochloride]",,,≤ 10 µM,≤ 10 µM
"CCCS(=O)(=O)N(C)CCOc1ccc2c(c1)C(Cc1ccc(Cl)c(Cl)c1)C(N)CC2 (stereo not shown) [Example 11, N-(2-(7-Amino-8-(3,4-dichlorobenzyl)-5,6,7,8-tetrahydronaphthalen-2-yloxy)ethyl)-N-methylpropane-1-sulfonamide hydrochloride]",≤ 1 µM,≤ 0.1 µM,,
"CCS(=O)(=O)CCCOc1ccc2c(c1)C(Cc1cccc(Cl)c1)C(N)CC2 (stereo not shown) [Example 84, 1-(3-Chloro-benzyl)-7-(3-ethanesulfonyl-propoxy)-1,2,3,4-tetrahydro-naphthalen-2-ylamine hydrochloride]",,,≤ 10 µM,≤ 10 µM
"Cn1cnc(S(=O)(=O)NCCOc2ccc3c(c2)C(Cc2ccc(Cl)cc2)C(N)CC3)c1 (stereo not shown) [Example 27, 1-Methyl-1H-imidazole-4-sulfonic acid {2-[7-amino-8-(4-chloro-benzyl)-5,6,7,8-tetrahydronaphthalen-2-yloxy]-ethyl}-amide hydrochloride]",≤ 0.01 µM,≤ 0.01 µM,,
"Cn1cnc(S(=O)(=O)NCCOc2ccc3c(c2)C(Cc2ccc(Cl)c(Cl)c2)C(NC(=O)C(F)(F)F)CC3)c1 (stereo not shown) [Example 18, N-{1-(3,4-Dichloro-benzyl)-7-[2-(1-methyl-1H-imidazole-4-sulfonylamino)-ethoxy]-1,2,3,4-tetrahydro-naphthalen-2-yl}-2,2,2-trifluoro-acetamide]",≤ 0.1 µM,≤ 0.01 µM,,

# Now from value to molecule, other results behind:
IC50 (human GlyT1c; [1]),Ki (human GlyT1c transporter; [2]),SMILES,IC50 (human GlyT1c),Ki (human GlyT1c transporter)
≤ 10 µM,≤ 1 µM,"Cc1ccc(S(=O)(=O)NCCOc2ccc3c(c2)C(Cc2ccc(Cl)cc2Cl)C(N)CC3)s1 (stereo not shown) [Example 73, 5-Methyl-thiophene-2-sulfonic acid {2-[7-amino-8-(2,4-dichloro-benzyl)-5,6,7,8-tetrahydronaphthalen-2-yloxy]-ethyl}-amide hydrochloride]",,
≤ 1 µM,≤ 0.1 µM,"NC1CCc2ccc(OCCNS(=O)(=O)c3cccs3)cc2C1Cc1cccc(Cl)c1 (stereo not shown) [Example 56, Thiophene-2-sulfonic acid {2-[7-amino-8-(3-chloro-benzyl)-5,6,7,8-tetrahydro-naphthalen-2-yloxy]-ethyl}-amide]",,
≤ 10 µM,≤ 1 µM,"CCOC(=O)NC1CCc2ccc(OCCNS(=O)(=O)c3cccs3)cc2C1Cc1cccc(Cl)c1 (stereo not shown) [Example 50, {1-(3-Chloro-benzyl)-7-[2-(thiophene-2-sulfonylamino)-ethoxy]-1,2,3,4-tetrahydronaphthalen-2-yl}-carbamic acid ethyl ester]",,
≤ 10 µM,≤ 1 µM,"Cc1ncc(S(=O)(=O)NCCOc2ccc3c(c2)C(Cc2cccc(Cl)c2)C(N)CC3)[nH]1 (stereo not shown) [Example 58, 2-Methyl-3H-imidazole-4-sulfonic acid {2-[7-amino-8-(3-chloro-benzyl)-5,6,7,8-tetrahydronaphthalen-2-yloxy]-ethyl}-amide]",,
≤ 1 µM,≤ 0.1 µM,"CCCS(=O)(=O)N1CCC[C@@H]1COc1ccc2c(c1)C(Cc1cccc(Cl)c1)C(N)CC2 (stereo partly drawn) [Example 82, 1-(3-Chloro-benzyl)-7-[(R)-1-(propane-1-sulfonyl)-pyrrolidin-2-ylmethoxy]-1,2,3,4-tetrahydro-naphthalen-2-ylamine hydrochloride]",,
≥ 1000 µM,≤ 10 µM,"CCOC(=O)NC1CCc2ccc(OCCNS(=O)(=O)c3cnn(C(F)F)c3)cc2C1Cc1cccc(Cl)c1 (stereo not shown) [Example 81, {1-(3-Chloro-benzyl)-7-[2-(1-difluoromethyl-1H-pyrazole-4-sulfonylamino)-ethoxy]-1,2,3,4-tetrahydro-naphthalen-2-yl}-carbamic acid ethyl ester]",,
≤ 10 µM,≤ 1 µM,"NC1CCc2ccc(OCCNS(=O)(=O)c3ccc(Cl)s3)cc2C1Cc1cccc(Cl)c1 (stereo not shown) [Example 59, 5-Chloro-thiophene-2-sulfonic acid {2-[7-amino-8-(3-chloro-benzyl)-5,6,7,8-tetrahydronaphthalen-2-yloxy]-ethyl}-amide]",,
≤ 10 µM,≤ 1 µM,"CCCS(=O)(=O)N1CC(Oc2ccc3c(c2)C(Cc2cccc(Cl)c2)C(N)CC3)C1 (stereo not shown) [Example 83, 1-(3-Chloro-benzyl)-7-[1-(propane-1-sulfonyl)-azetidin-3-yloxy]-1,2,3,4-tetrahydronaphthalen-2-ylamine hydrochloride]",,
